{
  "source": "patent US8785396B2",
  "about": "“Method and composition for treating migraines” (Mannkind Corporation, priority 2007, dated 2014)",
  "key": {"[1]": {"tested_on": "Female ZDF rats", "assay": "Food consumption in female ZDF rats (PYY)", "assay_type": "in vivo, rat", "conditions": "Group 1: 0.6 mg IV", "source_text": "(§1) Pharmacokinetic and pharmacodynamic studies: Female ZDF rats were used in these experiments and divided into 7 groups; five rats were assigned to each group, except for Group 1 which had 3 rats."}, "[2]": {"tested_on": "Female ZDF rats", "assay": "Blood glucose in female ZDF rats (PYY)", "assay_type": "in vivo, rat", "conditions": "Group 1: PYY IV", "source_text": "as §1"}, "[3]": {"assay": "Sumatriptan pharmacokinetics in female Sprague Dawley rats", "conditions": "rat, in vivo, 0.358 mg"}, "[4]": {"tested_on": "ZDF rats", "assay": "Intraperitoneal glucose tolerance test (IPGTT) in ZDF rats (exendin-4)", "assay_type": "in vivo, rat", "conditions": "subcutaneous injection", "excerpt": "After an overnight fast, ZDF rats were given a glucose challenge by intraperitoneal injection (IPGTT)."}, "[5]": {"tested_on": "Male ZDF rats", "assay": "Cumulative food consumption in male ZDF rats (oxyntomodulin)", "assay_type": "in vivo, rat", "conditions": "30% oxyntomodulin/FDKP powder by pulmonary insufflation, fasted ZDF rats", "procedure": "Male ZDF rats (10/group) were assigned to one of four groups.\nRats were allowed to eat after receiving the experimental dose. A predetermined amount of food was given to the rats and the amount of food the rats consumed was measured at various times after the start of the experiment."}, "[6]": {"tested_on": "patients diagnosed with type 2 diabetes", "assay": "Meal challenge study in type 2 diabetes patients: GLP-1 levels, insulin, glucose, gastric emptying", "assay_type": "in vivo, human", "method": "Experimental Design: The study was divided into two periods and enrolled 20 patients diagnosed with type 2 diabetes ranging in age from 20 to 64 years of age. […] Period 2 was performed after completion of Period 1. […] The results of this study are depicted in FIGS. 18-20."}, "[7]": {"tested_on": "patients with Type 2 diabetes", "assay": "Phase 1 clinical trial of GLP-1/FDKP inhalation powder in fasted Type 2 diabetes patients: serum glucose", "assay_type": "in vivo, human", "conditions": "1.5 mg GLP-1 inhaled; attained by the 30 min time point", "method": "[…]. These studies were conducted according to Example 1 and as described herein. […]. No. 11/735,957, which disclosure is incorporated herein by reference. […].\n[…]. The serum glucose levels were analyzed for each sample."}, "[8]": {"tested_on": "healthy adult male subjects", "assay": "Phase 1a clinical trial: insulin, glucose and glucagon response after inhaled GLP-1", "assay_type": "in vivo, human", "method": "GLP-1/FDKP inhalation powder was administered using the MedTone® Inhaler device, previously tested. The experiments were designed to identify the safety and tolerability of various doses of GLP-1/FDKP inhalation powder by pulmonary inhalation.\nDropouts were not replaced. These dosages assumed a body mass of 70 kg."}},
  "data": [
    {"compound": "peptide YY(3-36) [PYY]", "values": [
      {"measurement": "food consumption", "setting": "[1]", "value": "relatively effective in reducing food consumption"},
      {"measurement": "time after dosing up to which blood glucose level was lower than in the other rats", "setting": "[2]", "value": "about 15 min"}
    ]},
    {"compound": "CNS(=O)(=O)Cc1ccc2[nH]cc(CCN(C)C)c2c1", "note": "[Sumatriptan, sumatriptan]", "values": [
      {"measurement": "bioavailability", "setting": "[3]; iv", "value": 100, "unit": "%"},
      {"measurement": "bioavailability", "setting": "[3]; sc", "value": 36.4, "unit": "%"}
    ]},
    {"compound": "exenatide", "values": [
      {"measurement": "time blood glucose was significantly lowered following IPGTT versus air control", "setting": "[4]", "value": 30, "unit": "min"}
    ]},
    {"compound": "oxyntomodulin", "values": [
      {"measurement": "time after dosing with significantly less food consumed than control rats", "setting": "[5]", "value": "up to 6 hr"}
    ]},
    {"compound": "glucagon-like peptide 1 [GLP-1]", "values": [
      {"measurement": "insulin response", "setting": "[6]; GLP-1 dry powder comprising FDKP, fed and fasted groups", "value": "more significant"},
      {"measurement": "blood glucose after meal challenge", "setting": "[6]; GLP-1 dry powder formulation", "value": "delayed rise in blood glucose and reduced overall exposure (AUC) to glucose"},
      {"measurement": "mean glucose drop", "setting": "[7]", "value": "approximately 1 mmol/L"},
      {"measurement": "decrease in plasma glucose in two of the six subjects", "setting": "[8]; 1.5 mg GLP-1 inhaled", "value": "more than 1.5 mol/L"},
      {"measurement": "mean fasting plasma glucose 20 min after dosing", "setting": "[8]; 1.5 mg GLP-1 inhaled, reduced from 85", "value": 70, "unit": "mg/dL"},
      {"measurement": "largest decrease in plasma glucagon", "setting": "[8]; 1.5 mg dose group", "value": "approximately 2.5 pmol/L"},
      {"measurement": "time of maximum change in plasma glucagon", "setting": "[8]; after dosing, inhaled GLP-1", "value": 12, "unit": "min"},
      {"measurement": "peak plasma insulin levels in one subject", "setting": "[8]; inhaled GLP-1", "value": "exceeded 700 pmol/L"},
      {"measurement": "peak plasma insulin response in most subjects", "setting": "[8]; inhaled GLP-1, dose groups 0.05-1.5 mg", "value": "200 to 400", "unit": "pmol/L"}
    ]}
  ]
}
